In patent publication US20260250318A1, “COMPOSITIONS AND METHODS FOR CROSSING THE BLOOD BRAIN BARRIER” (VOYAGER THERAPEUTICS, INC., priority 2022, published 2026):

Key:
[1] = test system: brains, heart, liver, muscle, and DRG of the NHPs; test: Maturation of TTM-001 and TTM-002 capsids, NGS enrichment in NHP tissues; assay type: in vivo; details: relative to AAV9 control
Outline: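 Variants carry mutations within and flanking the loop IV peptide insert: positions 450–466 were triplet-randomized, while positions 449–466 received low-frequency point mutations. The combined pool went into two NHPs, and each peptide was scored by NGS enrichment ratio against AAV9.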

brain = test: Matured TTM-001 and TTM-002 variants, NGS enrichment in mouse brain; assay type: in vivo, mice; details: relative to AAV9 control
[2] = NGS fold-enrichment, DRG of NHPs
[3] = NGS fold-enrichment, RNA, brain of NHPs
[4] = NGS fold-enrichment, heart of NHPs
[5] = NGS fold-enrichment, liver DNA of NHPs
[6] = NGS fold-enrichment, liver RNA of NHPs
[7] = NGS fold-enrichment, muscle of NHPs
[8] = NGS fold-enrichment, brain of mice
[9] = NGS fold-enrichment of matured AAV capsid variants, NHP brain, RNA

| Sequence | Fold Enrichment relative to AAV9, Brain (NHP) [1, 9] [fold] | Fold Enrichment relative to AAV9, DRG (NHP) ([1]; NHP DRG) [fold] | Fold Enrichment relative to AAV9, Heart (NHP) ([1]; NHP heart) [fold] | Fold Enrichment relative to AAV9, Liver DNA (NHP) ([1]; NHP liver, DNA) [fold] | Fold Enrichment relative to AAV9, Liver RNA (NHP) ([1]; NHP liver, RNA) [fold] | Fold Enrichment relative to AAV9, Muscle (NHP) ([1]; NHP muscle) [fold] | Fold Enrichment relative to AAV9, Brain (Mouse) (brain; mouse brain) [fold] | also measured |
| --- | --- | --- | --- | --- | --- | --- | --- | --- |
| KTINGSGSPHSKAQKLNT | – | – | – | – | – | – | – | Fold Enrichment relative to AAV9, DRG (NHP) [1, 2]: 0.073 fold; Fold Enrichment relative to AAV9, Brain (NHP) [1, 3]: 67.782 fold; Fold Enrichment relative to AAV9, Heart (NHP) [1, 4]: 0.092 fold; Fold Enrichment relative to AAV9, Liver DNA (NHP) [1, 5]: 0.201 fold; Fold Enrichment relative to AAV9, Liver RNA (NHP) [1, 6]: 1.232 fold; Fold Enrichment relative to AAV9, Muscle (NHP) [1, 7]: 0.000 fold; Fold Enrichment relative to AAV9, Brain (Mouse) (brain; [8]): 68.637 fold |
| KTINGSGSPHSKAQKQQD | – | – | – | – | – | – | – | Fold Enrichment relative to AAV9, DRG (NHP) [1, 2]: 0.000 fold; Fold Enrichment relative to AAV9, Brain (NHP) [1, 3]: 70.116 fold; Fold Enrichment relative to AAV9, Heart (NHP) [1, 4]: 0.024 fold; Fold Enrichment relative to AAV9, Liver DNA (NHP) [1, 5]: 0.083 fold; Fold Enrichment relative to AAV9, Liver RNA (NHP) [1, 6]: 0.064 fold; Fold Enrichment relative to AAV9, Muscle (NHP) [1, 7]: 0.000 fold; Fold Enrichment relative to AAV9, Brain (Mouse) (brain; [8]): 110.196 fold |
| KTINGSGSPHSKAQKTLT | 56.844 | 0.000 | 0.017 | 1.400 | 1.800 | 0.009 | 66.415 | – |
| KTINGSGSPHSKAQKVIT | 53.273 | 0.000 | 0.000 | 0.402 | 0.357 | 0.000 | 95.147 | – |
| KTINGSGSPHSKAQLHHT | 56.815 | 0.025 | 0.000 | 0.368 | 0.712 | 0.010 | 58.418 | – |
| KTINGSGSPHSKAQLPST | 56.238 | 0.005 | 4.258 | 0.185 | 1.040 | 0.001 | 84.918 | – |
| KTINGSGSPHSKAQMPNT | 52.408 | 0.084 | 0.036 | 0.359 | 0.057 | 0.025 | 66.040 | – |
| KTINGSGSPHSKAQMPST | 54.986 | 1.691 | 0.039 | 0.202 | 0.450 | 0.028 | 114.331 | – |
| KTINGSGSPHSKAQNIII | 56.630 | 0.000 | 0.062 | 0.056 | 0.099 | 0.123 | 76.742 | – |
| KTINGSGSPHSKAQNNDQ | 53.226 | 0.000 | 0.000 | 0.046 | 0.593 | 0.000 | 59.664 | – |
| KTINGSGSPHSKAQNTHD | 58.108 | 0.000 | 0.027 | 0.126 | 0.410 | 0.000 | 81.189 | – |
| KTINGSGSPHSKAQNTYA | – | – | – | – | – | – | – | Fold Enrichment relative to AAV9, DRG (NHP) [1, 2]: 0.000 fold; Fold Enrichment relative to AAV9, Brain (NHP) [1, 3]: 59.603 fold; Fold Enrichment relative to AAV9, Heart (NHP) [1, 4]: 0.000 fold; Fold Enrichment relative to AAV9, Liver DNA (NHP) [1, 5]: 0.346 fold; Fold Enrichment relative to AAV9, Liver RNA (NHP) [1, 6]: 0.425 fold; Fold Enrichment relative to AAV9, Muscle (NHP) [1, 7]: 0.000 fold; Fold Enrichment relative to AAV9, Brain (Mouse) (brain; [8]): 101.715 fold |
| KTINGSGSPHSKAQPAKT | – | – | – | – | – | – | – | Fold Enrichment relative to AAV9, Brain (NHP) ([1]; NGS fold-enrichment of RNA, NHP brain): 111.472 fold; Fold Enrichment relative to AAV9, DRG (NHP) [1, 2]: 0.331 fold; Fold Enrichment relative to AAV9, DRG (NHP) ([1]; NGS fold-enrichment, NHP DRG): 0.331 fold; Fold Enrichment relative to AAV9, Heart (NHP) ([1]; NGS fold-enrichment, NHP heart): 0.000 fold; Fold Enrichment relative to AAV9, Liver DNA (NHP) ([1]; NGS fold-enrichment, NHP liver DNA): 1.796 fold; Fold Enrichment relative to AAV9, Liver RNA (NHP) ([1]; NGS fold-enrichment, NHP liver RNA): 0.044 fold; Fold Enrichment relative to AAV9, Muscle (NHP) ([1]; NGS fold-enrichment, NHP muscle): 1.089 fold; Fold Enrichment relative to AAV9, Brain (NHP) [1, 3]: 111.472 fold; Fold Enrichment relative to AAV9, Heart (NHP) [1, 4]: 0.000 fold; Fold Enrichment relative to AAV9, Liver DNA (NHP) [1, 5]: 1.796 fold; Fold Enrichment relative to AAV9, Liver RNA (NHP) [1, 6]: 0.044 fold; Fold Enrichment relative to AAV9, Muscle (NHP) [1, 7]: 1.089 fold; Fold Enrichment relative to AAV9, Brain (Mouse) (brain; [8]): 215.275 fold; Fold Enrichment relative to AAV9, Brain (Mouse) (brain; NGS fold-enrichment, mouse brain): 215.275 fold |
| KTINGSGSPHSKAQPART | 55.513 | 0.000 | 0.000 | 0.991 | 1.294 | 0.328 | 127.301 | – |
| KTINGSGSPHSKAQPLGT | 53.049 | 0.015 | 0.004 | 0.222 | 0.515 | 0.001 | 68.656 | – |
| KTINGSGSPHSKAQPPAT | – | – | – | – | – | – | – | Fold Enrichment relative to AAV9, DRG (NHP) [1, 2]: 0.048 fold; Fold Enrichment relative to AAV9, Brain (NHP) [1, 3]: 63.510 fold; Fold Enrichment relative to AAV9, Heart (NHP) [1, 4]: 0.030 fold; Fold Enrichment relative to AAV9, Liver DNA (NHP) [1, 5]: 0.302 fold; Fold Enrichment relative to AAV9, Liver RNA (NHP) [1, 6]: 0.126 fold; Fold Enrichment relative to AAV9, Muscle (NHP) [1, 7]: 0.031 fold; Fold Enrichment relative to AAV9, Brain (Mouse) (brain; [8]): 117.453 fold |
| KTINGSGSPHSKAQRDIT | 52.415 | 0.098 | 0.000 | 0.605 | 1.784 | 0.008 | 88.122 | – |
| KTINGSGSPHSKAQRDQT | 51.897 | 0.069 | 0.014 | 0.554 | 0.867 | 0.040 | 102.317 | – |
| KTINGSGSPHSKAQREMT | 51.076 | 0.000 | 24.900 | 0.476 | 1.564 | 143.49 | 70.961 | – |
| KTINGSGSPHSKAQRMNT | 50.686 | 0.000 | 108.747 | 0.264 | 0.943 | 0.019 | 97.975 | – |
| KTINGSGSPHSKAQRMST | 58.435 | 0.192 | 0.037 | 0.882 | 1.707 | 0.000 | 53.414 | – |
| KTINGSGSPHSKAQRTCT | 57.863 | 0.000 | 0.140 | 1.716 | 1.855 | 0.129 | 90.146 | – |
